This note sets out measurements from patent publication US9884821B2, “N1-cyclic amine-N5-substituted biguanide derivatives, methods of preparing the same and pharmaceutical composition comprising the same” (IMMUNOMET THERAPEUTICS INC., priority 2013, dated 2018).

One experiment deals with HCT116 cells. Briefly: Effect of inhibiting cancer cell proliferation (MTT) in HCT116 cells. Type of experiment: cell-based, human. The conditions noted are these: Homo sapiens, HCT-116, 48 h; for inhibition at 100 µM: read-out: Cell growth inhibition (%) at 100 μM. Put shortly:
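HCT116 colorectal cells (about 5,000 per well, DMEM with 10% FBS) treated with 100, 25, 6.25, 1.56 or 0.39 μM compound for 48 h. MTT added for 3 h, formazan read at 560 nm; GIC50 taken from viability relative to untreated cells.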

The subject of the next experiment is AMPK. The experiment in a line: AMPK activation effect (AMPK [pT172] ELISA) in MCF7 cells. Format: cell-based, human. The conditions noted are these: 24 hours; for AC150: concentration at which AMPK activation reached 150%. The gist of the method:
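MCF7 cells in DMEM/10% FBS were treated 24 h with compounds at 5, 10 and 50 uM. Lysates (20 μg protein) were assayed by ELISA for AMPKα Thr172 phosphorylation as the activation read-out.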

Setting [1] is: AMPKα Thr172 phosphorylation relative to untreated cells.

In the case of `Cc1cccc(NC(=N)NC(=N)N2CC=CC2)c1.Cl` [Example 51, N1-1,2-dihydropyrrole-N5-(3-methyl)phenyl biguanide hydrochloride], in the experiment with HCT116 cells, growth was halved (GI50) at 102 µM and the inhibition (in general, the percentage by which the read-out fell short of the control) at 100 µM amounted to 48.7%. For the same molecule, in the experiment on AMPK (setting [1]), the “AMPK activation effect (%) 10 μM” value came to 241% and the “AMPK activation effect (%) 50 μM” value was found to be 409%. Besides, in the experiment on AMPK, the AC150 stood at 3.1 µM.
`CC1CCCN(C(=N)NC(=N)NCc2cccc(C(F)(F)F)c2)C1.Cl` (centres unmarked) [Example 65, N1-(3-methyl)piperidine-N5-(3-trifluoromethyl)benzyl biguanide hydrochloride]: the concentration for 50% growth inhibition (GI50) (usually the concentration giving 50% growth inhibition) in the experiment with HCT116 cells is 18.3 µM. Further, the inhibition at 25 µM with HCT116 cells (25 μM, read-out: Cell growth inhibition (%) at 25 μM) was found to be 66.7%. Besides, the “AMPK activation effect (%) 5 μM” value in the experiment on AMPK (5 μM, AMPKα Thr172 phosphorylation relative to untreated cells) came out at 147%. Further, the “AMPK activation effect (%) 10 μM” value with AMPK (setting [1]) is reported as 274%. Also, the AC150 in the experiment with AMPK is 2.8 µM.
Regarding `COc1cccc(NC(=N)NC(=N)N2CC=CC2)c1.Cl` [Example 43, N1-1,2-dihydropyrrole-N5-(3-methoxyl)phenyl biguanide hydrochloride], in the experiment on HCT116 cells, the concentration for 50% growth inhibition (GI50) turned out to be 114 µM and the inhibition at 100 µM was determined as 44.9%. In the experiment with AMPK (setting [1]), the “AMPK activation effect (%) 10 μM” value amounted to 200% and the “AMPK activation effect (%) 50 μM” value came out at 466%. In the experiment with AMPK, this molecule gave an AC150 of 4.7 µM.
The matching figures for `Cl.N=C(NCc1cccc(OC(F)(F)F)c1)NC(=N)N1CC=CCC1` [Example 55, N1-1,2,3,6-tetrahydropyridine-N5-(3-trifluoromethoxy)benzyl biguanide hydrochloride]: 22.8 µM, 97.9%, 389%, 608% and 2.1 µM.
